Assay results from patent US20200085791A1, “[(PHENYLSULFONYL)OCTAHYDRO-EPIMINOISOINDOL-YL](1H-1,2,3-TRIAZOL-5-YL)METHANONES” (Bayer Pharma Aktiengesellschaft, priority 2016, published 2020).

Target: T1, recombinant human AKR1C3 (Aldo-keto reductase family 1 member C3) (Homo sapiens, UniProt P42330)
T1 construct: GST (cleaved yes); made in house; host or cells: E. coli
T1 sequence (P42330 1-323): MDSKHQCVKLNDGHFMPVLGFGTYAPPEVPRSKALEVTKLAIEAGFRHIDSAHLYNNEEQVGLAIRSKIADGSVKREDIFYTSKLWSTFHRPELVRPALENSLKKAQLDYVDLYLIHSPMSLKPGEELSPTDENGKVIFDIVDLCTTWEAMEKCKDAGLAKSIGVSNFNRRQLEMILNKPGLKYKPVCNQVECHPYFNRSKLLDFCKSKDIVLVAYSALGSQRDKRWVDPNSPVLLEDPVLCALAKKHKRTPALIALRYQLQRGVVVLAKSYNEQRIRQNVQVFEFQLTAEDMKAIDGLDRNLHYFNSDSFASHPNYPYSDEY
Test: In Vitro Assay 1: AKR1C3-inhibitory activity (Coumberone to Coumberol fluorescence assay)
Format: biochemical
Conditions: recombinant enzyme, Coumberone 0.3 μM, NADPH 10 μM, 15 min pre-incubation, 4-parameter fit; average or median values
In short: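 Recombinant human AKR1C3 (E. coli-expressed GST fusion, GST removed), typically ~1 nM, was preincubated 15 min with compound in 50 mM potassium phosphate pH 7 with 1 mM DTT. The reaction ran typically 90 min with 10 μM NADPH and 0.3 μM Coumberone (final), then was stopped with 1 μM EM-1404. Coumberol fluorescence (ex 380/em 520 nm) was normalized to no-inhibitor and no-enzyme controls.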

Row | IC50 [nM] | Compound
1 | 48 | Cc1cc(Cl)cc(S(=O)(=O)N2[C@@H]3CC[C@H]2[C@@H]2CN(C(=O)c4cnn[nH]4)C[C@@H]23)c1 [Example 68, {(3aR,4R,7S,7aS)-8-[(3-chloro-5-methylphenyl)sulfonyl]octahydro-2H-4,7-epiminoisoindol-2-yl}(1H-1,2,3-triazol-5-yl)methanone]
2 | 735 | Nc1cccc(S(=O)(=O)N2[C@@H]3CC[C@H]2[C@@H]2CN(C(=O)c4cnn[nH]4)C[C@@H]23)c1 [Example 69, {(3aR,4R,7S,7aS)-8-[(3-aminophenyl)sulfonyl]octahydro-2H-4,7-epiminoisoindol-2-yl}(1H-1,2,3-triazol-5-yl)methanone]
